What follows are molecules tested on HPB-ALL (assay: selective drug sensitivity score (sDSS, relative to normal bone marrow) (sDSS (score)); higher = more potent and effective on the cell line relative to normal bone marrow cells). Settings: 72 h.
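Note: ALL cell lines in 384-well plates, five doses spanning 10,000-fold, each plate scaled between vehicle and 100 µmol/L benzalkonium chloride controls, sDSS an adapted area-under-curve metric.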

SMILES	selective drug sensitivity score
C1=N/C2=N/c3ccc(OCCN4CCCC4)c(c3)COC/C=C/COCc3cccc(c3)C(=C1)N2 [Pacritinib] (top concentration 10000 nM)	-5.7
Cc1[nH]c2ccccc2c1CCNCc1ccc(/C=C/C(=O)NO)cc1 [Panobinostat] (top concentration 1000 nM)	10.1
Cc1ccc(Nc2nccc(N(C)c3ccc4c(C)n(C)nc4c3)n2)cc1S(N)(=O)=O [Pazopanib] (top concentration 10000 nM)	0.64
Nc1nc2[nH]cc(CCc3ccc(C(=O)N[C@@H](CCC(=O)O)C(=O)O)cc3)c2c(=O)[nH]1 [Pemetrexed] (top concentration 10000 nM)	9.98
Cc1ccc(C(=O)Nc2ccc(CN3CCN(C)CC3)c(C(F)(F)F)c2)cc1C#Cc1cnc2cccnn12 [Ponatinib] (top concentration 1000 nM)	-2.18
C[C@]12C=CC(=O)C=C1CC[C@@H]1[C@@H]2[C@@H](O)C[C@@]2(C)[C@H]1CC[C@]2(O)C(=O)CO [Prednisolone] (top concentration 10000 nM)	2.2
CC(C)(C)c1cc(NC(=O)Nc2ccc(-c3cn4c(n3)sc3cc(OCCN5CCOCC5)ccc34)cc2)no1 [Quizartinib] (top concentration 1000 nM)	5.18
Nc1cc(F)ccc1NC(=O)/C=C/c1cnn(C/C=C/c2ccccc2)c1 [RGFP966] (top concentration 10000 nM)	11
CNC(=O)c1cc(Oc2ccc(NC(=O)Nc3ccc(Cl)c(C(F)(F)F)c3)c(F)c2)ccn1 [Regorafenib] (top concentration 10000 nM)	1.34

Each molecule was assayed on SUP-B15 in the same assay as above. Settings: 72 h.

SMILES	selective drug sensitivity score
C1=N/C2=N/c3ccc(OCCN4CCCC4)c(c3)COC/C=C/COCc3cccc(c3)C(=C1)N2 [Pacritinib] (top concentration 10000 nM)	-3.7
Cc1[nH]c2ccccc2c1CCNCc1ccc(/C=C/C(=O)NO)cc1 [Panobinostat] (top concentration 1000 nM)	10.2
Cc1ccc(Nc2nccc(N(C)c3ccc4c(C)n(C)nc4c3)n2)cc1S(N)(=O)=O [Pazopanib] (top concentration 10000 nM)	-0.96
Nc1nc2[nH]cc(CCc3ccc(C(=O)N[C@@H](CCC(=O)O)C(=O)O)cc3)c2c(=O)[nH]1 [Pemetrexed] (top concentration 10000 nM)	28
Cc1ccc(C(=O)Nc2ccc(CN3CCN(C)CC3)c(C(F)(F)F)c2)cc1C#Cc1cnc2cccnn12 [Ponatinib] (top concentration 1000 nM)	31.8
C[C@]12C=CC(=O)C=C1CC[C@@H]1[C@@H]2[C@@H](O)C[C@@]2(C)[C@H]1CC[C@]2(O)C(=O)CO [Prednisolone] (top concentration 10000 nM)	28.1
CC(C)(C)c1cc(NC(=O)Nc2ccc(-c3cn4c(n3)sc3cc(OCCN5CCOCC5)ccc34)cc2)no1 [Quizartinib] (top concentration 1000 nM)	0.38
Nc1cc(F)ccc1NC(=O)/C=C/c1cnn(C/C=C/c2ccccc2)c1 [RGFP966] (top concentration 10000 nM)	18
CNC(=O)c1cc(Oc2ccc(NC(=O)Nc3ccc(Cl)c(C(F)(F)F)c3)c(F)c2)ccn1 [Regorafenib] (top concentration 10000 nM)	9.14

The molecules below were run on NALM-16 in the same assay as above. Settings: 72 h.

SMILES	selective drug sensitivity score
C1=N/C2=N/c3ccc(OCCN4CCCC4)c(c3)COC/C=C/COCc3cccc(c3)C(=C1)N2 [Pacritinib] (top concentration 10000 nM)	-8.2
Cc1[nH]c2ccccc2c1CCNCc1ccc(/C=C/C(=O)NO)cc1 [Panobinostat] (top concentration 1000 nM)	2.94
Cc1ccc(Nc2nccc(N(C)c3ccc4c(C)n(C)nc4c3)n2)cc1S(N)(=O)=O [Pazopanib] (top concentration 10000 nM)	-1.26
Nc1nc2[nH]cc(CCc3ccc(C(=O)N[C@@H](CCC(=O)O)C(=O)O)cc3)c2c(=O)[nH]1 [Pemetrexed] (top concentration 10000 nM)	7.38
Cc1ccc(C(=O)Nc2ccc(CN3CCN(C)CC3)c(C(F)(F)F)c2)cc1C#Cc1cnc2cccnn12 [Ponatinib] (top concentration 1000 nM)	-0.08
C[C@]12C=CC(=O)C=C1CC[C@@H]1[C@@H]2[C@@H](O)C[C@@]2(C)[C@H]1CC[C@]2(O)C(=O)CO [Prednisolone] (top concentration 10000 nM)	-3
CC(C)(C)c1cc(NC(=O)Nc2ccc(-c3cn4c(n3)sc3cc(OCCN5CCOCC5)ccc34)cc2)no1 [Quizartinib] (top concentration 1000 nM)	-1.32
Nc1cc(F)ccc1NC(=O)/C=C/c1cnn(C/C=C/c2ccccc2)c1 [RGFP966] (top concentration 10000 nM)	6.24
CNC(=O)c1cc(Oc2ccc(NC(=O)Nc3ccc(Cl)c(C(F)(F)F)c3)c(F)c2)ccn1 [Regorafenib] (top concentration 10000 nM)	1.54

These molecules were tested on MOLT-4 in the same assay as above. Settings: 72 h.

SMILES	selective drug sensitivity score
C1=N/C2=N/c3ccc(OCCN4CCCC4)c(c3)COC/C=C/COCc3cccc(c3)C(=C1)N2 [Pacritinib] (top concentration 10000 nM)	-7.3
Cc1[nH]c2ccccc2c1CCNCc1ccc(/C=C/C(=O)NO)cc1 [Panobinostat] (top concentration 1000 nM)	2.94
Cc1ccc(Nc2nccc(N(C)c3ccc4c(C)n(C)nc4c3)n2)cc1S(N)(=O)=O [Pazopanib] (top concentration 10000 nM)	-1.06
Nc1nc2[nH]cc(CCc3ccc(C(=O)N[C@@H](CCC(=O)O)C(=O)O)cc3)c2c(=O)[nH]1 [Pemetrexed] (top concentration 10000 nM)	21.5
Cc1ccc(C(=O)Nc2ccc(CN3CCN(C)CC3)c(C(F)(F)F)c2)cc1C#Cc1cnc2cccnn12 [Ponatinib] (top concentration 1000 nM)	4.32
C[C@]12C=CC(=O)C=C1CC[C@@H]1[C@@H]2[C@@H](O)C[C@@]2(C)[C@H]1CC[C@]2(O)C(=O)CO [Prednisolone] (top concentration 10000 nM)	1.1
CC(C)(C)c1cc(NC(=O)Nc2ccc(-c3cn4c(n3)sc3cc(OCCN5CCOCC5)ccc34)cc2)no1 [Quizartinib] (top concentration 1000 nM)	-0.82
Nc1cc(F)ccc1NC(=O)/C=C/c1cnn(C/C=C/c2ccccc2)c1 [RGFP966] (top concentration 10000 nM)	8.94
CNC(=O)c1cc(Oc2ccc(NC(=O)Nc3ccc(Cl)c(C(F)(F)F)c3)c(F)c2)ccn1 [Regorafenib] (top concentration 10000 nM)	3.24

What follows are molecules tested on NALM-6 in the same assay as above. Settings: 72 h.

SMILES	selective drug sensitivity score
C1=N/C2=N/c3ccc(OCCN4CCCC4)c(c3)COC/C=C/COCc3cccc(c3)C(=C1)N2 [Pacritinib] (top concentration 10000 nM)	-2.3
Cc1[nH]c2ccccc2c1CCNCc1ccc(/C=C/C(=O)NO)cc1 [Panobinostat] (top concentration 1000 nM)	4.14
Cc1ccc(Nc2nccc(N(C)c3ccc4c(C)n(C)nc4c3)n2)cc1S(N)(=O)=O [Pazopanib] (top concentration 10000 nM)	-1.26
Nc1nc2[nH]cc(CCc3ccc(C(=O)N[C@@H](CCC(=O)O)C(=O)O)cc3)c2c(=O)[nH]1 [Pemetrexed] (top concentration 10000 nM)	24.5
Cc1ccc(C(=O)Nc2ccc(CN3CCN(C)CC3)c(C(F)(F)F)c2)cc1C#Cc1cnc2cccnn12 [Ponatinib] (top concentration 1000 nM)	0.82
C[C@]12C=CC(=O)C=C1CC[C@@H]1[C@@H]2[C@@H](O)C[C@@]2(C)[C@H]1CC[C@]2(O)C(=O)CO [Prednisolone] (top concentration 10000 nM)	15.9
CC(C)(C)c1cc(NC(=O)Nc2ccc(-c3cn4c(n3)sc3cc(OCCN5CCOCC5)ccc34)cc2)no1 [Quizartinib] (top concentration 1000 nM)	1.38
Nc1cc(F)ccc1NC(=O)/C=C/c1cnn(C/C=C/c2ccccc2)c1 [RGFP966] (top concentration 10000 nM)	13.3
CNC(=O)c1cc(Oc2ccc(NC(=O)Nc3ccc(Cl)c(C(F)(F)F)c3)c(F)c2)ccn1 [Regorafenib] (top concentration 10000 nM)	4.04
